Source: US20250171438A1 (Agios Pharmaceuticals, Inc., priority 2022, published 2025)

These compounds were tested against T1, human PAH with the R408W mutation (Homo sapiens, UniProt P00439, R408W) (assay: Cell Based Phenylalanine Flux Assay). Details: A375 cells expressing human R408W PAH; 24 hrs compound incubation; 13C-Tyrosine by LC-MS; average where tested multiple times; read-out: AC50.
T1 construct: expressed in transfected cells
T1 sequence (P00439 1-452 R408W): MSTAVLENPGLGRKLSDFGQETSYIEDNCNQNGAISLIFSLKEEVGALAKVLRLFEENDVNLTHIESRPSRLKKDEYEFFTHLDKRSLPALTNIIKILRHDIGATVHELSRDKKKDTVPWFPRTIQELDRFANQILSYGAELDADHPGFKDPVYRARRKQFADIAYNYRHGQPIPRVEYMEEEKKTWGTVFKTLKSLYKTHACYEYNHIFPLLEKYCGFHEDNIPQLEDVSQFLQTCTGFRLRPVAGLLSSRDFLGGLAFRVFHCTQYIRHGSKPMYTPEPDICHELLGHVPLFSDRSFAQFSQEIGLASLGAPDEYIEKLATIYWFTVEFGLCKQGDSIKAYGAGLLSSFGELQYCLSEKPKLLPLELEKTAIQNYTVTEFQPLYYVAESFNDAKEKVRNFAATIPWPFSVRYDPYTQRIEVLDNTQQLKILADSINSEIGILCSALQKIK
Set-up: scale not given here

Compared with Cc1nc(C(C)(C)N(C)C)oc1C(=O)N1CCc2[nH]cnc2[C@@H]1c1nc2c(F)cccc2s1 [Example 2050, (R)-(2-(2-(dimethylamino)propan-2-yl)-4-methyloxazol-5-yl)(4-(4-fluorobenzo[d]thiazol-2-yl)-6,7-dihydro-1H-imidazo[4,5-c]pyridin-5(4H)-yl)methanone], Cc1cccc2sc([C@H]3c4nc[nH]c4CCN3C(=O)c3cnco3)nc12 [Example 2014, (R)-(4-(4-methylbenzo[d]thiazol-2-yl)-6,7-dihydro-1H-imidazo[4,5-c]pyridin-5(4H)-yl)(oxazol-5-yl)methanone] is higher in AC50: 1000 to 5000 nM for the first, over 5000 nM for the second.

First: O=C(c1cn(CC(F)(F)F)nc1Cl)N1CCc2[nH]cnc2[C@H]1c1nc2c(F)cccc2s1 [Example 1764, (S)-(3-chloro-1-(2,2,2-trifluoroethyl)-1H-pyrazol-4-yl)(4-(4-fluorobenzo[d]thiazol-2-yl)-6,7-dihydro-1H-imidazo[4,5-c]pyridin-5(4H)-yl)methanone]
Second: O=C(c1nnc(-c2cn[nH]c2)o1)N1CCc2[nH]cnc2[C@@H]1c1nc2c(F)cccc2s1 [Example 1864, (R)-(5-(1H-pyrazol-4-yl)-1,3,4-oxadiazol-2-yl)(4-(4-fluorobenzo[d]thiazol-2-yl)-6,7-dihydro-1H-imidazo[4,5-c]pyridin-5(4H)-yl)methanone]
The AC50 of the first is lower: 500 to 1000 nM for the first, 1000 to 5000 nM for the second.

First: CC(C)n1cc(-c2ncc(C(=O)N3CCc4[nH]cnc4[C@H]3c3nc4ccccc4s3)o2)cn1 [Example 1415]
Second: Cc1cc(-c2nnc(C(=O)N3CCc4[nH]cnc4[C@@H]3c3nc4ccccc4s3)o2)nn1C [Example 1943, (R)-(4-(benzo[d]thiazol-2-yl)-6,7-dihydro-1H-imidazo[4,5-c]pyridin-5(4H)-yl)(5-(1,5-dimethyl-1H-pyrazol-3-yl)-1,3,4-oxadiazol-2-yl)methanone]
The AC50 of the first is lower: under 500 nM for the first, 1000 to 5000 nM for the second.

First: Cn1cc(C(F)(F)C(=O)N2CCc3[nH]cnc3[C@@H]2c2nc3ccccc3s2)cn1 [Example 1556, (R)-1-(4-(benzo[d]thiazol-2-yl)-6,7-dihydro-1H-imidazo[4,5-c]pyridin-5(4H)-yl)-2,2-difluoro-2-(1-methyl-1H-pyrazol-4-yl)ethanone]
Second: CN(C)CCn1nccc1C(=O)N1CCc2[nH]cnc2[C@H]1c1nc2c(F)cccc2s1 [Example 1761, (S)-(1-(2-(dimethylamino)ethyl)-1H-pyrazol-5-yl)(4-(4-fluorobenzo[d]thiazol-2-yl)-6,7-dihydro-1H-imidazo[4,5-c]pyridin-5(4H)-yl)methanone]
The AC50 of the first is higher: 1000 to 5000 nM for the first, 500 to 1000 nM for the second.

First: CC(C)(O)c1nc(C(F)(F)F)c(C(=O)N2CCc3[nH]cnc3[C@H]2c2nc3ccccc3s2)o1 [Example 1553]
Second: Cc1c(C(=O)N2CCc3[nH]cnc3[C@@H]2c2nc3c(F)cccc3s2)cnn1-c1ccccn1 [Example 1934, (R)-(4-(4-fluorobenzo[d]thiazol-2-yl)-6,7-dihydro-1H-imidazo[4,5-c]pyridin-5(4H)-yl)(5-methyl-1-(pyridin-2-yl)-1H-pyrazol-4-yl)methanone]
The AC50 of the first is lower: under 500 nM for the first, over 5000 nM for the second.

First: Cc1cccc2nc([C@@H]3c4nc[nH]c4CCN3C(=O)c3cnco3)sc12 [Example 2179, (S)-(4-(7-methylbenzo[d]thiazol-2-yl)-6,7-dihydro-1H-imidazo[4,5-c]pyridin-5(4H)-yl)(oxazol-5-yl)methanone]
Second: O=C(c1cn(CC(F)(F)F)nc1C(F)F)N1CCc2[nH]cnc2[C@@H]1c1nc2ccccc2s1 [Example 1986, (R)-(4-(benzo[d]thiazol-2-yl)-6,7-dihydro-1H-imidazo[4,5-c]pyridin-5(4H)-yl)(3-(difluoromethyl)-1-(2,2,2-trifluoroethyl)-1H-pyrazol-4-yl)methanone]
The AC50 of the first is lower: under 500 nM for the first, 1000 to 5000 nM for the second.

First: O=C(c1oc(-c2ccccn2)nc1C(F)F)N1CCc2[nH]cnc2[C@H]1c1nc2ccccc2s1 [Example 1795]
Second: O=C(c1nncs1)N1CCc2[nH]cnc2[C@@H]1c1nc2cc(F)ccc2s1 [Example 1300, (R)-(4-(5-fluorobenzo[d]thiazol-2-yl)-6,7-dihydro-1H-imidazo[4,5-c]pyridin-5(4H)-yl)(1,3,4-thiadiazol-2-yl)methanone]
The AC50 of the first is lower: under 500 nM for the first, 1000 to 5000 nM for the second.

First: CC(C)(O)/C=C/c1nc(C(F)(F)F)c(C(=O)N2CCc3[nH]cnc3[C@@H]2c2nc3ccccc3s2)o1 [Example 1570, (R,E)-(4-(benzo[d]thiazol-2-yl)-6,7-dihydro-1H-imidazo[4,5-c]pyridin-5(4H)-yl)(2-(3-hydroxy-3-methylbut-1-en-1-yl)-4-(trifluoromethyl)oxazol-5-yl)methanone]
Second: c1ccc2sc([C@H]3c4nc[nH]c4CCN3CCC3CC3)nc2c1 [Example 1275, (R)-2-(5-(2-cyclopropylethyl)-4,5,6,7-tetrahydro-1H-imidazo[4,5-c]pyridin-4-yl)benzo[d]thiazole]
The AC50 of the first is lower: under 500 nM for the first, 1000 to 5000 nM for the second.

Compared with O=C(C1CC1(F)F)N1CCc2[nH]cnc2[C@H]1c1nc2ccccc2s1 (single isomer, unassigned) [Example 1288], COc1ccn2ncc(C(=O)N3CCc4[nH]cnc4[C@H]3c3nc4ccccc4s3)c2c1 [Example 1083] is lower in AC50: 500 to 1000 nM for the first, under 500 nM for the second.

First: (R)-2-((4-(6-bromo-1H-benzo[d]imidazol-2-yl)-6,7-dihydro-1H-imidazo[4,5-c]pyridin-5(4H)-yl)methyl)thiazole [Example 968]
Second: O=C(c1nnc(-c2ccc(F)c(F)c2)o1)N1CCc2[nH]cnc2[C@H]1c1nc2c(F)cccc2s1 [Example 1878, (S)-(5-(3,4-difluorophenyl)-1,3,4-oxadiazol-2-yl)(4-(4-fluorobenzo[d]thiazol-2-yl)-6,7-dihydro-1H-imidazo[4,5-c]pyridin-5(4H)-yl)methanone]
The AC50 of the first is higher: 1000 to 5000 nM for the first, under 500 nM for the second.

First: Cn1cc(-c2ncc(C(=O)N3CCc4[nH]cnc4[C@@H]3c3nc4ccccc4s3)o2)cn1 [Example 1343, (R)-(4-(benzo[d]thiazol-2-yl)-6,7-dihydro-1H-imidazo[4,5-c]pyridin-5(4H)-yl)(2-(1-methyl-1H-pyrazol-4-yl)oxazol-5-yl)methanone]
Second: O=C(CCC1CC1)N1CCc2[nH]cnc2[C@@H]1c1nc2ccc(F)cc2s1 [Example 1094, (R)-3-cyclopropyl-1-(4-(6-fluorobenzo[d]thiazol-2-yl)-6,7-dihydro-1H-imidazo[4,5-c]pyridin-5(4H)-yl)propan-1-one]
The AC50 of the first is lower: 1000 to 5000 nM for the first, over 5000 nM for the second.

First: O=C(c1nnc(OCCC(F)(F)F)o1)N1CCc2[nH]cnc2[C@@H]1c1nc2ccccc2s1 [Example 1789, (R)-(4-(benzo[d]thiazol-2-yl)-6,7-dihydro-1H-imidazo[4,5-c]pyridin-5(4H)-yl)(5-(3,3,3-trifluoropropoxy)-1,3,4-oxadiazol-2-yl)methanone]
Second: O=C(c1nncn1C1CC1)N1CCc2[nH]cnc2[C@H]1c1nc2c(F)cccc2s1 [Example 2084]
The AC50 of the first is higher: 1000 to 5000 nM for the first, 500 to 1000 nM for the second.

First: O=C(c1ncn2ccccc12)N1CCc2[nH]cnc2[C@@H]1c1nc2cc(F)ccc2s1 [Example 1106, (R)-(4-(5-fluorobenzo[d]thiazol-2-yl)-6,7-dihydro-1H-imidazo[4,5-c]pyridin-5(4H)-yl)(imidazo[1,5-a]pyridin-1-yl)methanone]
Second: CC[C@@H](O)c1nc(C(F)F)c(C(=O)N2CCc3[nH]cnc3[C@H]2c2nc3c(F)cccc3s2)o1 [Example 2067]
The AC50 of the first is higher: 1000 to 5000 nM for the first, under 500 nM for the second.

Compared with N#Cc1nc(N2CCC(F)CC2)oc1C(=O)N1CCc2[nH]cnc2[C@H]1c1nc2ccccc2s1 [Example 1651, (S)-5-(4-(benzo[d]thiazol-2-yl)-4,5,6,7-tetrahydro-1H-imidazo[4,5-c]pyridine-5-carbonyl)-2-(4-fluoropiperidin-1-yl)oxazole-4-carbonitrile], O=C(C1CCC1)N1CCc2[nH]cnc2[C@H]1c1nc2ccccc2s1 [Example 1153] is lower in AC50: 500 to 1000 nM for the first, under 500 nM for the second.

In the case of O=C(c1cnn2cc(C3CC3)ccc12)N1CCc2[nH]cnc2[C@H]1c1nc2ccccc2s1 [Example 1191], the AC50 was 500 to 1000 nM.

Same assay, conditions: A375 cells expressing human R408W PAH; 24 hrs with compound; 13C-Tyrosine by LC-MS; average where tested multiple times

With O=C(CCC1CC1)N1CCc2[nH]cnc2C1c1nc2ccccc2[nH]1 (centres unmarked) the AC50 was “E, E”.

Same assay, conditions: A375 cells expressing human R408W PAH; 24 hrs with compound; 13C-Tyrosine by LC-MS; average where tested multiple times; read-out: AC50

O=C(CCc1nccs1)N1CCc2[nH]cnc2C1c1nc2c(Br)cccc2s1 (centres unmarked) and O=C(CCc1nccs1)N1CCc2nc[nH]c2C1c1nc2cc(Cl)ccc2s1 (centres unmarked) fall in the same range of AC50: 1000 to 5000 nM for the first, 1000 to 5000 nM for the second.

First: O=C(c1cnn2c(Br)cccc12)N1CCc2[nH]cnc2C1c1nc2ccc(Br)cc2[nH]1 (centres unmarked)
Second: O=C(c1ncn2ccccc12)N1CCc2[nH]cnc2C1c1nc2ccccc2[nH]1 (centres unmarked)
The AC50 of the first is lower: 1000 to 5000 nM for the first, over 5000 nM for the second.

Cn1ccc(C(=O)N2CCc3[nH]cnc3C2c2nc3ccccc3s2)n1 (centres unmarked) and O=C(c1cnc(COc2ccccc2)s1)N1CCc2[nH]cnc2C1c1nc2ccccc2s1 (centres unmarked) fall in the same range of AC50: 1000 to 5000 nM for the first, 1000 to 5000 nM for the second.

First: Cc1ncoc1CC(=O)N1CCc2[nH]cnc2[C@H]1c1nc2ccccc2[nH]1 [(S)-1-(4-(1H-benzo[d]imidazol-2-yl)-6,7-dihydro-1H-imidazo[4,5-c]pyridin-5(4H)-yl)-2-(4-methyloxazol-5-yl)ethanone]
Second: O=C(CCc1cncs1)N1CCc2[nH]cnc2[C@H]1c1nc2ccccc2[nH]1 [(S)-1-(4-(1H-benzo[d]imidazol-2-yl)-1,4,6,7-tetrahydro-5H-imidazo[4,5-c]pyridin-5-yl)-3-(thiazol-5-yl)propan-1-one]
The AC50 of the first is lower: 1000 to 5000 nM for the first, over 5000 nM for the second.

COCCc1ncc(C(=O)N2CC(C)c3[nH]cnc3C2c2nc3ccccc3s2)o1 (centres unmarked) and O=C(c1cn[nH]c1)N1CCc2nc[nH]c2C1c1nc2c(F)cccc2s1 (centres unmarked) fall in the same range of AC50: 1000 to 5000 nM for the first, 1000 to 5000 nM for the second.

Work on Cc1nnc(C(=O)N2CCc3[nH]cnc3C2c2nc3cc(F)ccc3s2)s1 (centres unmarked) yielded an AC50 of 1000 to 5000 nM.
